Tested on: BMDM, BMDC or AM cells
Experiment: Real time RT-PCR of type I IFN and other inflammatory response genes
Assay type: cell-based, C57BL/6 mouse
Settings: 100 nM cGAMP, 4 h
Procedure: Real time RT-PCR of type I IFN and other inflammatory response genes induced by NP-cGAMP. BMDM, BMDC or AM cells […] were seeded into 6-well plates and cultured for 24 h. The cells were then incubated at 37° C. with free cGAMP or NP-cGAMP (100 nM cGAMP) suspended in complete culture medium for 4 h. All cellular RNA was collected using TRIzol reagent (Thermo Fisher). One microgram of total RNA was transcribed into cDNA using High-Capacity cDNA Reverse Transcription Kit (Thermo Fisher), and real-time quantitative PCR (qPCR) was performed using PowerUp SYBR Green Master Mix (Thermo Fisher) with primers for amplification of Gapdh, Ifnb1, Cxcl9, Cxcl10, Tnf, Il6, Il12b, Il1b, Ifna1, Il10, and Tgfb1 genes. mRNA levels were normalized against the housekeeping gene GAPDH.

## Nc1nc2c(ncn2[C@@H]2O[C@@H]3COP(=O)(O)O[C@H]4[C@@H](O)[C@H](n5cnc6c(N)ncnc65)O[C@@H]4COP(=O)(O)O[C@@H]2[C@@H]3O)c(=O)[nH]1 [free cGAMP, cyclic [G(2′,5′)pA(3′,5′)p]]
  expression of Ifnb1, Ifna1 and other proinflammatory genes (Tnf, Il1b, Il6, Il12b, Cxcl9,10): only a modest increase
